Experimental data published in US9834558B2, “Substituted bridged urea analogs as sirtuin modulators” (GLAXOSMITHKLINE LLC, priority 2013, dated 2017).
Like-named read-outs stand apart in the source and are kept apart here.

Assays:
[1] = target: T1, full-length hSIRT1 wild-type (Homo sapiens, UniProt Q96EB6); test: SIRT1 activation and inhibition assays (OAcADPr mass spectrometry assay), wild-type enzyme; assay type: biochemical
T1 construct: Full-length human SIRT1 (hSIRT1) proteins were expressed with a C-terminal His6 tag; His6 (C); made in house
T1 sequence (Q96EB6 1-747): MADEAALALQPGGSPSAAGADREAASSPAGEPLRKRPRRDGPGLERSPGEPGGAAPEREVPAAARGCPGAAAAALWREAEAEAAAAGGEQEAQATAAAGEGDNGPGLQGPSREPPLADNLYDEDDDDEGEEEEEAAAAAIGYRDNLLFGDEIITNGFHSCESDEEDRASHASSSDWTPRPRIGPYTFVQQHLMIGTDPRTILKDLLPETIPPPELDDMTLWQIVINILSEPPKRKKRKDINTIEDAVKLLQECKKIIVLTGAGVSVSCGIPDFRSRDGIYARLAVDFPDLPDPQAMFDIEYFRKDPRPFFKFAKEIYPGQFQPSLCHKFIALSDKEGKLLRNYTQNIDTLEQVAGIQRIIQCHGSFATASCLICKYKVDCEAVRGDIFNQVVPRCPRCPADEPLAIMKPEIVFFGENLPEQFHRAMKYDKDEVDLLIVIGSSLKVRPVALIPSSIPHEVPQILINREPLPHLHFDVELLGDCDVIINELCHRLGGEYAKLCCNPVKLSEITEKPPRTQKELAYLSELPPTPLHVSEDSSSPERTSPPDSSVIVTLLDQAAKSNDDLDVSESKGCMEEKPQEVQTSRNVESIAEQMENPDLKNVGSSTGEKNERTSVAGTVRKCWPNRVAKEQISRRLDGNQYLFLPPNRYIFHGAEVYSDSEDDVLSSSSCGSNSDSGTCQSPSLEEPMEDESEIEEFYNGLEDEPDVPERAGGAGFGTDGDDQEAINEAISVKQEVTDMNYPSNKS
Protocol: Final concentrations of the PNC1/GDH coupling system components used were 20 units/mL bovine GDH (Sigma-Aldrich), 1 uM yeast PNC1, 3.4 mM a-ketoglutarate, and 220 μM NADH or NADPH. An extinction coefficient of 6.22 mM^−1 cm^−1 and a pathlength of 0.81 cm was used to convert the absorbance at 340 nm to product concentration for the 150 uL reactions used.
Substrate KM determinations were performed by varying one substrate concentration at a fixed, saturating concentration of the second substrate. SIRT1 activation and inhibition assays were run in reaction buffer with 0.05% BSA at 25° C. and analyzed using the OAcADPr assay. Enzyme and compound were pre-incubated for 20 minutes before addition of substrates. […] The dose-dependence of five compounds was tested and the fold-activation data were described by Eq. 1
[formula] where vx/v0 is the ratio of the reaction rate in the presence (vx) versus absence (v0) of activator (X), RVmax is the relative velocity at infinite activator concentration, EC50 is the concentration of activator required to produce one-half RVmax and b is the minimum value of vx/v0.

SIRT1 = target: T2, SIRT1 (Homo sapiens, UniProt Q96EB6); test: Trp mass spectrometry assay of SIRT1 activation; assay type: biochemical; conditions: for TRP Activity (EC1.5): EC1.5 = concentration that results in 150% activation of SIRT1
T2 sequence (Q96EB6 1-747): T1 sequence (Q96EB6 1-747)
How it was run: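 N-terminal His-tagged human SIRT1 (10 nM, E. coli BL21(DE3)) with 0.5 μM Ac-RHKK(Ac)W-NH2 peptide and 120 μM βNAD+, 25 min at 25 °C in HEPES pH 7.5, formic acid stop. OAADPR or deacetylated peptide quantified by mass spectrometry; EC1.5 (50% activity increase over control) and Percent Maximum Activation reported.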

[2] = concentration giving 150% activation of SIRT1, Trp peptide substrate
[3] = Trp mass spectrometry assay, EC1.5 = concentration of test compound that results in 150% activation of SIRT1
[4] = Trp peptide assay, maximum activity relative to control (100%), read-out: TRP MAX RESP (percent maximum fold activation)

O=C(Nc1ccccn1)N1c2nc(-c3cccc(C(F)(F)F)c3)ccc2N2CC[C@H]1C2 [Example 7]
RVmax fold shift [1]: 1.00

Cc1cnc2c(NC(=O)N3c4nc(-c5cccc(C(F)(F)F)c5)ccc4N4CC[C@H]3C4)cccc2n1 [Example 8]
RVmax fold shift [1]: 1.00

O=C(Nc1cc(-c2cnco2)ccn1)N1c2nc(-c3cncc(C(F)(F)F)c3)ccc2N2C[C@@H](O)[C@H]1C2 [Example 726]
Tryp AVG EC1.5 (μM) (SIRT1; [2]): B (B (EC1.5 1-25 μM))

O=C(Nc1ccc2c(c1)OCCCO2)N1c2nc(-c3cccc(C(F)(F)F)c3)ccc2N2CC[C@H]1C2 [Example 95]
Tryp AVG EC1.5 (μM) (SIRT1; Trp peptide substrate, concentration giving 150% activation of SIRT1): A (A (EC1.5<1 μM))

O=C(Nc1cncc(Br)c1)N1c2nc(-c3cccc(C(F)(F)F)c3)ccc2N2CC[C@H]1C2 [Example 542]
Tryp AVG EC1.5 (μM) (SIRT1; [3]): A (A (EC1.5<1 μM))

CN(C)c1cc(-c2ccc3c(n2)N(C(=O)Nc2cnccn2)[C@H]2CCN3C2)ccn1 [(9S)-5-[2-(dimethylamino)pyridin-4-yl]-N-(pyrazin-2-yl)-1,6,8-triazatricyclo[7.2.1.0 {2,7}]dodeca-2(7),3,5-triene-8-carboxamide]
TRP Activity (EC1.5) (SIRT1; Trp peptide assay): B (B (EC1.5 1-25 μM))
Emax (SIRT1; [4]): > 150%

Cc1nc(NC(=O)N2c3nc(-c4cncc(F)c4)ccc3N3CCC[C@H]2C3)sc1C [Example 471]
Tryp AVG EC1.5 (μM) (SIRT1; [3]): B (B (EC1.5 1-25 μM))

Cc1ccncc1-c1ccc2c(n1)N(C(=O)Nc1cnccn1)[C@H]1CCCN2C1 [Example 513]
Tryp AVG EC1.5 (μM) (SIRT1; [3]): C (C (EC1.5>25 μM))

O=C(Nc1ccccn1)N1c2nc(N3CCOC(C(F)(F)F)C3)ccc2N2CC[C@H]1C2 (stereo partly drawn) [(9S)-N-(pyridin-2-yl)-5-[2-(trifluoromethyl)morpholin-4-yl]-1,6,8-triazatricyclo[7.2.1.0 {2,7}]dodeca-2(7),3,5-triene-8-carboxamide]
TRP Activity (EC1.5) (SIRT1; Trp peptide assay): B (B (EC1.5 1-25 μM))
Emax (SIRT1; [4]): > 150%

C#CCOc1cccc(NC(=O)N2c3nc(-c4cccc(C5(C(F)(F)F)N=N5)c4)ccc3N3CC[C@H]2C3)c1 [Example 797]
Tryp AVG EC1.5 (μM) (SIRT1; [2]): A (A (EC1.5<1 μM))

O=C1CN2C[C@H]1N(C(=O)Nc1cccc(-c3cnco3)c1)c1nc(-c3cccc(C(F)(F)F)c3)ccc12 [Example 692]
Tryp AVG EC1.5 (μM) (SIRT1; [2]): A (A (EC1.5<1 μM))

O=C(Nc1cccc(-c2cnco2)n1)N1c2nc(-c3cncc(C(F)(F)F)c3)ccc2N2C[C@@H](O)[C@H]1C2 [Example 703]
Tryp AVG EC1.5 (μM) (SIRT1; [2]): A (A (EC1.5<1 μM))

O=C(Nc1ccc(F)cn1)N1c2nc(-c3cccc(C(F)(F)F)n3)ccc2N2CC[C@H]1C2 [Example 340]
Tryp AVG EC1.5 (μM) (SIRT1; Trp mass spectrometry assay, concentration of test compound giving 150% activation of SIRT1): B (B (EC1.5 1-25 μM))

O=C(Nc1ccccn1)N1c2nc(-c3ccnc(N4CC[C@H](F)C4)c3)ccc2N2CC[C@H]1C2 [Example 422]
Tryp AVG EC1.5 (μM) (SIRT1; [3]): A (A (EC1.5<1 μM))
Emax (SIRT1; Trp mass spectrometry assay, percent maximum fold activation of SIRT1, read-out: Tryp % Fold Act): > 150%

CCOc1ncc(-c2ccc3c(n2)N(C(=O)Nc2cnccn2)[C@H]2CCN3C2)cc1C#N [(9S)-5-(5-cyano-6-ethoxypyridin-3-yl)-N-(pyrazin-2-yl)-1,6,8-triazatricyclo[7.2.1.0^{2,7}]dodeca-2(7),3,5-triene-8-carboxamide]
TRP Activity (EC1.5) (SIRT1; Trp peptide assay): C (C (EC1.5>25 μM))
Emax (SIRT1; [4]): < 150%

O=C(Nc1ccccn1)N1c2nc(-c3cccc(Cl)c3)ccc2N2C[C@@H](O)[C@H]1C2 [Example 675]
Tryp AVG EC1.5 (μM) (SIRT1; [2]): B (B (EC1.5 1-25 μM))

O=C(Nc1cccc(-c2cnco2)n1)N1c2nc(-c3cccc(C(F)(F)F)c3)ccc2N2C[C@@H](O)[C@H]1C2 [Example 698]
Tryp AVG EC1.5 (μM) (SIRT1; [2]): A (A (EC1.5<1 μM))

Cc1nc(NC(=O)N2c3nc(-c4cncc(C(F)(F)F)c4)ccc3N3C[C@@H](O)[C@H]2C3)sc1C [Example 697]
Tryp AVG EC1.5 (μM) (SIRT1; [2]): B (B (EC1.5 1-25 μM))

COc1cc(NC(=O)N2c3nc(-c4cncc(F)c4)ccc3N3CCC2CC3)ncn1 [Example 579]
Tryp AVG EC1.5 (μM) (SIRT1; [3]): B (B (EC1.5 1-25 μM))

O=C(Nc1nnc(C(F)(F)F)s1)N1c2nc(-c3cccc(C(F)(F)F)c3)ccc2N2CC[C@H]1C2 [Example 650]
Tryp AVG EC1.5 (μM) (SIRT1; [2]): C (C (EC1.5>25 μM))

O=C(O)c1cc(-c2ccc3c(n2)N(C(=O)Nc2cnccn2)[C@H]2CCN3C2)ccn1 [4-[(9S)-8-[(pyrazin-2-yl)carbamoyl]-1,6,8-triazatricyclo[7.2.1.0 {2,7}]dodeca-2(7),3,5-trien-5-yl]pyridine-2-carboxylic acid]
TRP Activity (EC1.5) (SIRT1; Trp peptide assay): C (C (EC1.5>25 μM))
Emax (SIRT1; [4]): < 150%

O=C(NC1CC1)c1ccc2c(n1)N(C(=O)Nc1ccccn1)[C@H]1CCN2C1 [(9S)-5-N-cyclopropyl-8-N-(pyridin-2-yl)-1,6,8-triazatricyclo[7.2.1.0^{2,7}]dodeca-2(7),3,5-triene-5,8-dicarboxamide]
TRP Activity (EC1.5) (SIRT1; Trp peptide assay): A (A (EC1.5<1 μM))
Emax (SIRT1; read-out: TRP MAX RESP (percent maximum fold activation)): > 150%

CC(=O)O[C@@H]1CN2C[C@H]1N(C(=O)Nc1ccccn1)c1nc(-c3cccc(C(F)(F)F)c3)ccc12 [Example 602]
Tryp AVG EC1.5 (μM) (SIRT1; [3]): B (B (EC1.5 1-25 μM))
